Values quoted from earlier work, collected in patent US9486463B2, “Chemosensory receptor ligand-based therapies” (AMBRA BIOSCIENCE LLC, priority 2010, dated 2016).
Blank lines part the entries; values can stand above or below the molecule they belong to.

Assays:
[1] = test system: patients with jejunostomy
sweet receptor = biological target: T1, sweet receptor (Homo sapiens, UniProt Q7RTX0+Q8TE23); settings: relative sweetness on a weight comparison basis to sucrose (=1.0)
T1 sequence (Q8TE23 20-839): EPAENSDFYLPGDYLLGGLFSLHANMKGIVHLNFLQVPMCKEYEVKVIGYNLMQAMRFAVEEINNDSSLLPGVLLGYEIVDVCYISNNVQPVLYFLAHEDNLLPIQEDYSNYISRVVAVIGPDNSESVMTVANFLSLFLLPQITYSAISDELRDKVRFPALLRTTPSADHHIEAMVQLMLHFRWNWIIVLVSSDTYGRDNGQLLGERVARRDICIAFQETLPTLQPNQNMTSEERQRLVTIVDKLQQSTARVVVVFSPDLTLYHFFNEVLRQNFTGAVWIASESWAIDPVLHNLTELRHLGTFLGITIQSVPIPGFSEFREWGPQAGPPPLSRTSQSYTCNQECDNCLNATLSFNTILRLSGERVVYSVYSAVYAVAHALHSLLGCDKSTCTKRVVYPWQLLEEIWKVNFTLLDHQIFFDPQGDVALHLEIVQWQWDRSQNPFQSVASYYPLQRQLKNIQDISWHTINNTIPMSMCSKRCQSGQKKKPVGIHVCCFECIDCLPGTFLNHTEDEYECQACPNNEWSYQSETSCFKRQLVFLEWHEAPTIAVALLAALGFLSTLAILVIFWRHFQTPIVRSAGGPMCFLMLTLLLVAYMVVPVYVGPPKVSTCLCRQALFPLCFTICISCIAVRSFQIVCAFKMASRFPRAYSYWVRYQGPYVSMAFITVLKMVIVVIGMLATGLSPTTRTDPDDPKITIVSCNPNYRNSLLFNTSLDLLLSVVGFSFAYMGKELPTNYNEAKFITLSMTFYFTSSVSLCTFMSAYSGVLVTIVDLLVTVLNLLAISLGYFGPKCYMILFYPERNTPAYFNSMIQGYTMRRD
T1 sequence (Q7RTX0 21-852): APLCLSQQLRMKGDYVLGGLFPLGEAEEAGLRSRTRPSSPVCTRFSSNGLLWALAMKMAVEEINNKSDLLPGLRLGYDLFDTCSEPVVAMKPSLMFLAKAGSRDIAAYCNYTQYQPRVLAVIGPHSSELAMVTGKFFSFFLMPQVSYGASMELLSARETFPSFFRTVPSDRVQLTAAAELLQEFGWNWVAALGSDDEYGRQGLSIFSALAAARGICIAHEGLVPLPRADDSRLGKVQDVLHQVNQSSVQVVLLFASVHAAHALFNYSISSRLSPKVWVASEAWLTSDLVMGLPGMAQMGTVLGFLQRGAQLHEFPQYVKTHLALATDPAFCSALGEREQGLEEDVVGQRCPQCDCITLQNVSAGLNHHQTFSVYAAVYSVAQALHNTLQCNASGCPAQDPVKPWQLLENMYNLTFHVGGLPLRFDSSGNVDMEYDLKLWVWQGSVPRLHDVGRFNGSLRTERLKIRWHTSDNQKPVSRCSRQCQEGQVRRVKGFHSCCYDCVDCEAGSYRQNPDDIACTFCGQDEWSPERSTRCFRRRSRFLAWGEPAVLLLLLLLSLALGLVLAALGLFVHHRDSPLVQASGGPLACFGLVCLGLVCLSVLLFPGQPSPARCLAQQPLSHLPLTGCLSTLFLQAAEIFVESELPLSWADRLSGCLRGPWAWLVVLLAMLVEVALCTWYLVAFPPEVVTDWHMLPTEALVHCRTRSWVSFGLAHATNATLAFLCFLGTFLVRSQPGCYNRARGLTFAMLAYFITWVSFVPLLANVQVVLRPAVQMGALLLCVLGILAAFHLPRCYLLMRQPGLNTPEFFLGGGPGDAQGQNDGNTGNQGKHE

rats [2] = test system: rats
humans [3] = test system: humans
humans [4] = test system: humans; remark: listed apart in the source
rats [5] = test system: rats; remark: listed apart in the source
rats [6] = test system: rats; remark: listed apart in the source
humans [7] = settings: instillation into the duodenum of humans

Molecule: GLP-2: gut hormone administered in patients with jejunostomy (HADGSFSDEMNTILDNLAARDFINWLIQTKITD; Glucagon-like peptide 2; UniProt P01275 146-178, looked up)
Gastric emptying of solids and liquids [1]: prolong
Intestinal absorption of energy and intestinal wet weight absorption [1]: improve

Molecule: C=C(C)C1CC=C(/C=N/O)CC1 (centres unmarked) [Perillartine (10), Perillartine]
Sweetness/potency (sweet receptor): 370

Sweetness/potency (sweet receptor): 30
Molecule: Dulcoside A [Dulcoside A (15)]

Molecule: OCCN1C[C@H](O)[C@@H](O)[C@H](O)[C@H]1CO [miglitol]
Increase in GLP-1, interaction with administration of a DPP-IV inhibitor (rats [2]): synergistic
Post-prandial GLP-1 levels (humans [3]): increase

Molecule: C=C1C[C@@]23CC[C@H]4[C@@](C)(CCC[C@@]4(C)C(=O)O[C@@H]4O[C@H](CO)[C@@H](O)[C@H](O)[C@H]4O)[C@@H]2CC[C@]1(O[C@@H]1O[C@H](CO)[C@@H](O)[C@H](O[C@@H]2O[C@H](CO)[C@@H](O)[C@H](O)[C@H]2O)[C@H]1O[C@@H]1O[C@H](CO)[C@@H](O)[C@H](O)[C@H]1O)C3 [Rebaudioside A (4), Rebaudioside A]
Gut hormones in the circulation (humans [4]): no alterations

Molecule: N[C@@H](CCC(=O)O)C(=O)O [glutamate]
Abdominal fat (rats [5]): reduced abdominal fat
Weight gain (rats [5]): decreased weight gain

Molecule: OC[C@H]1O[C@H](O[C@]2(CCl)O[C@H](CCl)[C@@H](O)[C@@H]2O)[C@H](O)[C@@H](O)[C@H]1Cl [sucralose]
Gut hormone release (rats [6]): no effect
Gut hormone release (humans [7]): no effect
